# Patent US7563895B2, “Quinoxaline compounds” (Janssen Pharmaceutica, N.V., priority 2003, dated 2009)
# Target: T1, CCK2 receptor (Homo sapiens, UniProt P32239)
# T1 construct: Membranes were prepared from the HEKZFP cells after induction; endogenous in cells; host or cells: HEKZFP cells (T-REx-293 with tet-inducible ZFP-VP16 specific for the CCK2R gene), doxycycline-induced; membrane preparation
# T1 sequence (P32239 1-447): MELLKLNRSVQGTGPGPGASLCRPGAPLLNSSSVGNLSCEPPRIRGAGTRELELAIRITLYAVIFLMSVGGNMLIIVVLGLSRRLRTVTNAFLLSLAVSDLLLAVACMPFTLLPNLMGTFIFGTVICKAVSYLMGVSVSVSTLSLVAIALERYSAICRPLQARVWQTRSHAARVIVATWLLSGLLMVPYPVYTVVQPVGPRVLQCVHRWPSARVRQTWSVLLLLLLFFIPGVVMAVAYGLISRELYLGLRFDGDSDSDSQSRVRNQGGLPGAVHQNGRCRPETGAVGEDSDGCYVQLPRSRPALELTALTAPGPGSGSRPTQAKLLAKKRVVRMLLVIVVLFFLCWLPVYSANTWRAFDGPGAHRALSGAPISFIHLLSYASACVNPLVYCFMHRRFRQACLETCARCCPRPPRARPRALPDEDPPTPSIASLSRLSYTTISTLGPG
# Assay: CCK2 receptor radioligand binding assay ([125I]-BH-CCK-8S, HEKZFP cell membranes)
# Conditions: competition with [125I]-BH-CCK-8S, membranes of induced HEKZFP cells, 60 min at 21±3° C., Cheng-Prusoff
# Protocol: Zinc Finger Proteins (ZFP) specific for the CCK2R gene were identified by Sangamo Biosciences. The ZFP domain was fused with the herpes simplex virus VP16 activation domain, and the fusion protein was subsequently cloned into the pcDNA3 mammalian expression vector (Invitrogen, San Diego, Calif.). […] After 2 weeks of selection in culture medium containing […] Zeocin (Invitrogen), sixty drug-resistant stable clones were isolated and analyzed for ZFP expression as well as CCK2R induction upon addition of doxycycline to the culture medium.
# HEKZFP cells were grown in DMEM supplemented with L-glutamine (2 mM), penicillin (50 units/mL) and streptomycin (50 μg/mL) and 10% FBS (v/v).
# Membranes were prepared from the HEKZFP cells after induction. […] The thawed pellets were homogenized using a Polytron PT-10 (7×1 s). The homogenates were centrifuged for 5 min at 1500 rpm (600×g), and the resulting pellets were discarded. The supernatants were re-centrifuged in order to collect the receptor-membrane pellets (25 min 15,000 rpm; 39,800×g), which were re-suspended in buffer A.
# The assay preparation was incubated for 1 h at 21±3° C., and then the assay was terminated by rapid filtration of the preparation under reduced pressure. The loaded filters were washed three times using undiluted PBS (100 μL), and then 100 μL of scintillation fluid was added to the filter plate. Bound radioactivity was determined using a Topcount (Packard BioScience, Meriden, Conn.) with a count time of 1 min. […] To validate the radioligand concentration and incubation time for the assay, saturation and kinetic binding studies were also conducted (see M. F. Morton, The Pharmacological Characterization of Cholecystokinin Receptors in the Human Gastrointestinal Tract. PhD Thesis, University of London, 2000). […] The assay was then terminated according to the procedure outlined above.
# The pKi values were determined using the equation of Y.-C.
# To circumvent problems associated with computer-assisted data analysis of compounds with low affinity, the data obtained in the current study were weighed according to a method described by Morton. In brief, 100% and 0% specific binding were defined independently using total binding and binding obtained in the presence of a high concentration of the reference antagonist, 2-NAP.
SMILES,Ki [nM],pKi
"C[C@H](c1ccccc1)N(C)C(=O)c1ccc(Br)cc1NS(=O)(=O)c1cccc2nccnc12 [Example 33, (R)-4-Bromo-N-methyl-N-(1-phenyl-ethyl)-2-(quinoxaline-5-sulfonylamino)-benzamide]",12.6,–
"C[C@H](c1ccccc1)N(C)C(=O)c1ccc(I)cc1NS(=O)(=O)c1cccc2nccnc12 [Example 34, (R)-4-Iodo-N-methyl-N-(1-phenyl-ethyl)-2-(quinoxaline-5-sulfonylamino)-benzamide]",7.94,–
"CN(Cc1ccc(F)cc1)C(=O)c1ccc(I)cc1NS(=O)(=O)c1cccc2nccnc12 [Example 35, N-(4-Fluorobenzyl)-4-iodo-N-methyl-2-(quinoxaline-5-sulfonylamino)-benzamide]",15.8,–
"C[C@@H](NC(=O)c1ccc(F)cc1NS(=O)(=O)c1cccc2nccnc12)c1ccc(Cl)cc1Cl [Example 37, (R)—N-[1-(2,4-Dichlorophenyl)-ethyl]-4-fluoro-2-(quinoxaline-5-sulfonylamino)-benzamide]",200,–
"O=C(c1ccc(Br)cc1NS(=O)(=O)c1cccc2nccnc12)N1CCOc2cc(F)ccc2C1 [Example 39, Quinoxaline-5-sulfonic acid [5-bromo-2-(8-fluoro-2,3-dihydro-5H-benzo[f][1,4]oxazepine-4-carbonyl)phenyl]-amide]",79.4,–
"O=C(c1ccc(Cl)cc1NS(=O)(=O)c1cccc2nccnc12)N1CCOc2cc(F)cc(F)c2C1 [Example 40, Quinoxaline-5-sulfonic acid [5-chloro-2-(6,8-difluoro-2,3-dihydro-5H-benzo[f][1,4]oxazepine-4-carbonyl)-phenyl]-amide]",251,–
"CN(Cc1ccccc1)C(=O)c1ccc(I)cc1NS(=O)(=O)c1cccc2nccnc12 [Example 42, N-Benzyl-4-iodo-N-methyl-2-(quinoxaline-5-sulfonylamino)-benzamide]",25.1,–
"C[C@@H](NC(=O)c1ccc(Cl)cc1NS(=O)(=O)c1cccc2nccnc12)c1ccc(Cl)cc1Cl [Example 43, (R)-4-Chloro-N-[1-(2,4-dichloro-phenyl)-ethyl]-2-(quinoxaline-5-sulfonylamino)-benzamide]",10,–
"CN(Cc1ccc(F)cc1)C(=O)c1ccc(Br)cc1NS(=O)(=O)c1cccc2nccnc12 [Example 45, 4-Bromo-N-(4-fluoro-benzyl)-N-methyl-2-(quinoxaline-5-sulfonylamino)-benzamide]",31.6,–
"CN(Cc1ccc(Cl)cc1)C(=O)c1ccc(I)cc1NS(=O)(=O)c1cccc2nccnc12 [Example 48, N-(4-Chloro-benzyl)-4-iodo-N-methyl-2-(quinoxaline-5-sulfonylamino)-benzamide]",20,–
"CC(NC(=O)c1ccc(Br)cc1NS(=O)(=O)c1cccc2nccnc12)c1ccc(Cl)cc1 (stereo not drawn) [Example 50, 4-Bromo-N-[1-(4-chloro-phenyl)-ethyl]-2-(quinoxaline-5-sulfonylamino)-benzamide]",63.1,–
"CC(NC(=O)c1ccc(Br)cc1NS(=O)(=O)c1cccc2nccnc12)c1ccc(F)cc1 (stereo not drawn) [Example 53, 4-Bromo-N-[1-(4-fluoro-phenyl)-ethyl]-2-(quinoxaline-5-sulfonylamino)-benzamide]",25.1,–
"O=C(NCc1ccc(Cl)cc1Cl)c1ccc(Cl)cc1NS(=O)(=O)c1cccc2nccnc12 [Example 58, 4-Chloro-N-(2,4-dichloro-benzyl)-2-(quinoxaline-5-sulfonylamino)-benzamide]",63.1,–
"O=C(NCc1ccc(F)cc1Cl)c1ccc(Cl)cc1NS(=O)(=O)c1cccc2nccnc12 [Example 61, 4-Chloro-N-(2-chloro-4-fluoro-benzyl)-2-(quinoxaline-5-sulfonylamino)-benzamide]",39.8,–
"C[C@H](c1ccccc1)N(C)C(=O)c1ccc(Cl)cc1NS(=O)(=O)c1cccc2nccnc12 [Example 62, (R)-4-Chloro-N-methyl-N-(1-phenyl-ethyl)-2-(quinoxaline-5-sulfonylamino)-benzamide]",15.8,–

# Next, values leading:
Ki [nM],pKi,SMILES
25.1,–,"C[C@@H](NC(=O)c1ccc(C(F)(F)F)cc1NS(=O)(=O)c1cccc2nccnc12)c1ccc(F)cc1F [Example 36, (R)—N-[1-(2,4-Difluorophenyl)ethyl]-2-(quinoxaline-5-sulfonylamino)-4-trifluoromethylbenzamide]"
316,–,"C[C@@H](NC(=O)c1ccc(C#N)cc1NS(=O)(=O)c1cccc2nccnc12)c1ccc(F)cc1F [Example 38, (R)-4-Cyano-N-[1-(2,4-difluoro-phenyl)ethyl]-2-(quinoxaline-5-sulfonylamino)-benzamide]"
39.8,–,"CC(NC(=O)c1ccc(I)cc1NS(=O)(=O)c1cccc2nccnc12)c1ccc(F)cc1 (stereo not drawn) [Example 54, N-[1-(4-Fluoro-phenyl)-ethyl]-4-iodo-2-(quinoxaline-5-sulfonylamino)-benzamide]"
–,7.4,"O=C(NCc1ccc(F)cc1F)c1ccc(I)cc1NS(=O)(=O)c1cccc2nccnc12 [Example 57, N-(2,4-Difluoro-benzyl)-4-iodo-2-(quinoxaline-5-sulfonylamino)-benzamide]"
31.6,–,"C[C@@H](NC(=O)c1ccc(I)cc1NS(=O)(=O)c1cccc2nccnc12)c1ccc(F)cc1 [Example 63, (R)-N-[1-(4-Fluoro-phenyl)-ethyl]-4-iodo-2-(quinoxaline-5-sulfonylamino)-benzamide]"
25.1,–,"C[C@@H](NC(=O)c1ccc(I)cc1NS(=O)(=O)c1cccc2nccnc12)c1ccc(Cl)cc1Cl [Example 64, (R)-N-[1-(2,4-Dichloro-phenyl)-ethyl]-4-iodo-2-(quinoxaline-5-sulfonylamino)-benzamide]"
50.1,–,"C[C@H](NC(=O)c1ccc(I)cc1NS(=O)(=O)c1cccc2nccnc12)c1ccc(Cl)cc1Cl [Example 66, (S)-N-[1-(2,4-Dichloro-phenyl)-ethyl]-4-iodo-2-(quinoxaline-5-sulfonylamino)-benzamide]"
79.4,–,"O=C(N[C@H](CF)c1ccc(F)cc1)c1ccc(Br)cc1NS(=O)(=O)c1cccc2nccnc12 [Example 71, (S)-4-Bromo-N-[2-fluoro-1-(4-fluoro-phenyl)-ethyl]-2-(quinoxaline-5-sulfonylamino)-benzamide]"
100,–,"O=C(N[C@H](CF)c1ccc(F)cc1)c1ccc(Cl)cc1NS(=O)(=O)c1cccc2nccnc12 [Example 72, (S)-4-Chloro-N-[2-fluoro-1-(4-fluoro-phenyl)-ethyl]-2-(quinoxaline-5-sulfonylamino)-benzamide]"
79.4,–,"O=C(N[C@H](CF)c1ccc(F)cc1)c1ccc(I)cc1NS(=O)(=O)c1cccc2nccnc12 [Example 73, (S)-N-[2-Fluoro-1-(4-fluoro-phenyl)-ethyl]-4-iodo-2-(quinoxaline-5-sulfonylamino)-benzamide]"
31.6,–,"O=C(NC(CF)c1ccc(F)cc1F)c1ccc(Br)cc1NS(=O)(=O)c1cccc2nccnc12 (stereo not drawn) [Example 74, 4-Bromo-N-[1-(2,4-difluoro-phenyl)-2-fluoro-ethyl]-2-(quinoxaline-5-sulfonylamino)-benzamide]"
63.1,–,"O=C(NC(CF)c1ccc(F)cc1F)c1ccc(I)cc1NS(=O)(=O)c1cccc2nccnc12 (stereo not drawn) [Example 75, N-[1-(2,4-Difluoro-phenyl)-2-fluoro-ethyl]-4-iodo-2-(quinoxaline-5-sulfonylamino)-benzamide]"
25.1,–,"O=C(N[C@H](CF)c1ccc(F)cc1F)c1ccc(Br)cc1NS(=O)(=O)c1cccc2nccnc12 [Example 76, (S)-4-Bromo-N-[1-(2,4-difluoro-phenyl)-2-fluoro-ethyl]-2-(quinoxaline-5-sulfonylamino)-benzamide]"
50.1,–,"O=C(N[C@H](CF)c1ccc(F)cc1F)c1ccc(I)cc1NS(=O)(=O)c1cccc2nccnc12 [Example 77, (S)-N-[1-(2,4-Difluoro-phenyl)-2-fluoro-ethyl]-4-iodo-2-(quinoxaline-5-sulfonylamino)-benzamide]"
39.8,–,"O=C(N[C@H](CF)c1ccc(F)cc1F)c1ccc(Cl)cc1NS(=O)(=O)c1cccc2nccnc12 [Example 78, (S)-4-Chloro-N-[1-(2,4-difluoro-phenyl)-2-fluoro-ethyl]-2-(quinoxaline-5-sulfonylamino)-benzamide]"
